Values of other authors, collected in US10144913B1, “Method to increase the yield of products in plant material” (Arkansas State University-Jonesboro, priority 2012, dated 2018).

Key:
rotavirus = rotavirus infected HT29.f8 cells; Ball et al., 2015
HL-60 cells = settings: caspase-dependent and caspase-independent pathways, Huang et al., 2010
[1] = target: type II cannabinoid receptor (Homo sapiens, UniProt P34972); settings: effect of the isoprenyl moiety; Brents et al., 2012
cannabinoid receptors = settings: US 20120165281
[2] = in vitro, compared to resveratrol
[3] = in vitro, compared to resveratrol; US 20120165281

type II cannabinoid receptor, sequence (P34972 whole entry): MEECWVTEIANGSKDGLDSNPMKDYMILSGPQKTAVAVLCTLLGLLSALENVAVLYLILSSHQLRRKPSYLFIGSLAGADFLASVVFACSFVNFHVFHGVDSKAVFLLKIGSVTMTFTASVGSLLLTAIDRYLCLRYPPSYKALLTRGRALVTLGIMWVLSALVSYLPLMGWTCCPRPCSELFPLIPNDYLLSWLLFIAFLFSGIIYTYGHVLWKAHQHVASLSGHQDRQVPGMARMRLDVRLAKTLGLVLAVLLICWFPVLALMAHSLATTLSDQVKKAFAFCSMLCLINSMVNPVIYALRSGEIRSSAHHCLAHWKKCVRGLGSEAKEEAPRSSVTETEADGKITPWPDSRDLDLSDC

Row | SMILES | antiviral activity (inhibiting rotavirus replication) (rotavirus) | anticancer activity (HL-60 cells) | binding affinity to type II cannabinoid receptor [1] | affinity to cannabinoid receptors (cannabinoid receptors) | antioxidant activities [2] | metabolic profiles [3]
1 | CC(C)/C=C/c1c(O)cc(/C=C/c2ccc(O)c(O)c2)cc1O [arachidin-1] | exhibited antiviral activity | anticancer activity | improved binding affinity | have affinity | higher antioxidant activities than resveratrol | favorable metabolic profiles
2 | Oc1ccc(C=Cc2cc(O)cc(O)c2)cc1 [resveratrol, reference compound] | not observed | – | – | – | – | –
3 | CC(C)/C=C/c1c(O)cc(/C=C/c2ccc(O)cc2)cc1O [arachidin-3] | exhibited antiviral activity | – | improved binding affinity | have affinity | – | favorable metabolic profiles
